According to patent publication US20210369710A1, “MODULATORS OF MYC FAMILY PROTO-ONCOGENE PROTEIN” (Nalo Therapeutics, priority 2019, published 2021):

How the values were obtained:
[1] = target: T1, MycN Protein (Homo sapiens, UniProt P04198); experiment: Degradation of MycN protein, Western blot band density in cells; format: cell-based; conditions: HL-60 or SKNBE2 cells; 6 uL of compound (1 mM) added to 3 mL cells; 6 hours; Western blot band density (ImageJ)
T1 construct: endogenous in cells; host or cells: HL-60 or SKNBE2
T1 sequence (P04198 1-464): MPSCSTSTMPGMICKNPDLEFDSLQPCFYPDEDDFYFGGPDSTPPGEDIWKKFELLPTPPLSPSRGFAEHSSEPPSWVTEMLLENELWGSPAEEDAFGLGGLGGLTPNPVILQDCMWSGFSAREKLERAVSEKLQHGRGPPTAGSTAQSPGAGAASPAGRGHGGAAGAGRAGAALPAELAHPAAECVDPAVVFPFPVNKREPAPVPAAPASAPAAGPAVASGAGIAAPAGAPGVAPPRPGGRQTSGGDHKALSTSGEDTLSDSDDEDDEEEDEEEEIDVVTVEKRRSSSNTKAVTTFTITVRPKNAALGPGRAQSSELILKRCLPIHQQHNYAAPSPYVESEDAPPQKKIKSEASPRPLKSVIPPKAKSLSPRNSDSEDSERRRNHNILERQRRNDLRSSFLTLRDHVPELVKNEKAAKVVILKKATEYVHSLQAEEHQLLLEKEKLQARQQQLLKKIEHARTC
Method: (§1) In a T150 flask was plated either 2×10^6 of HL-60 (human leukemia cell line) or SKNBE2 (neuroblastoma cell line) cells in a total of 30 mL containing Roswell Park Memorial Institute (RPMI) 1640 Medium (Thermo Fisher, Cat. #11875-085), 10% Fetal Bovine Serum (FBS, Thermo Fisher: Cat. #10437-028), 1% Penicillin/streptomycin (Thermo Fisher: Cat. #10378016), and 1% Amophotericin B (Thermo Fisher, Cat. #15290026). The cells were split every 72 hours by reseeding the HL-60 or SKNBE2 cells, and the passage number was noted. It is noteworthy that cell cultures that were above 40 passages were not used, and most experiments were done with cells of less than 30 passages.
(§2) In a 6-well cell culture plate, a total of 3 mL of either 1×10^6 cells/mL of HL-60 or SKNBE2 cells were seeded, resulting in a total of 3×10^6 cells per well. To each well containing 3 mL of either HL-60 or SKNBE2 cell line was added 6 uL of MycN modulating compound (1 mM) and the resulting plate was shaken from left to right, and not swirled. After 6 hours, the cells were placed in a 15 mL falcon tube and spun at 500 Gs at 4° C. in a swinging bucket centrifuge. The medium was then carefully removed without disturbing the pellet. The pellet was then washed with 3 mLs of chilled phosphate buffered saline (PBS) and subjected to the spin cycle. PBS was then removed and the pellet was lysed in 200 uL of radioimmunoprecipitation (RIPA) lysis buffer (Thermo Fisher: Cat. #899000) that is supplemented with protease and phosphatase inhibitors (Thermo Fisher: Cat. #A32959). The cell lysate was then subjected to spinning in a centrifuge for 10 minutes at 13000G at 4° C. The supernatant was then carefully transferred to a fresh eppendorf tube without disturbing the pellet (˜180 uL). The protein concentration of the cell lysate was then determined by using a bicinchoninic acid (BCA assay) according to manufacturer's protocol (Thermo Fisher: Cat. #23227).
(§3) Cell lysate, approximately 25 ug-30 ug, was loaded per well in a 4-20% polyacrylamide gel (Biorad. Cat. #5671094). After running the dye front off of the gel, the gel was transferred to a nitrocellulose membrane (Biorad: Cat. #1704159) using the transblot turbo system (Biorad: Cat. #1704150) according to manufacturer's protocol. After transferring for 30 minutes, the membrane was blocked with 5% BSA for 1 hour at room temperature. The BSA was then washed off and the primary antibody of choice (1:500) was added, and the membrane was incubated with the primary antibody at 4° C. for overnight. The next morning, the primary antibody was removed and the membrane was washed with 1×-TBST for 10 minutes and repeated three more times. Following the last wash, a secondary antibody (Molecular Devices. Cat. #R8209 or R8208) was added at 1:5000 dilution and incubated for 1 hour at room temperature. Following the incubation with the secondary antibody, the membrane was washed with 1×-TBST for 10 minutes and repeated three more times. Following the last wash, the membrane was washed with de-ionized water twice and dried for at least two hours. Once the membrane is completely dry, the Molecular Devices Spectra Max western system was used to observe the bands. The western image was saved and the band density was measured with ImageJ software.

[2] = target: T2, MycC Protein (Homo sapiens, UniProt P01106); experiment: Degradation of MycC protein, Western blot band density in cells; format: cell-based; conditions: HL-60 or SKNBE2 cells; 6 uL of compound (1 mM) added to 3 mL cells; 6 hours; Western blot band density (ImageJ)
T2 construct: endogenous in cells; host or cells: HL-60 or SKNBE2
Method: as §1, §2, §3

T2 sequence (P01106 whole entry): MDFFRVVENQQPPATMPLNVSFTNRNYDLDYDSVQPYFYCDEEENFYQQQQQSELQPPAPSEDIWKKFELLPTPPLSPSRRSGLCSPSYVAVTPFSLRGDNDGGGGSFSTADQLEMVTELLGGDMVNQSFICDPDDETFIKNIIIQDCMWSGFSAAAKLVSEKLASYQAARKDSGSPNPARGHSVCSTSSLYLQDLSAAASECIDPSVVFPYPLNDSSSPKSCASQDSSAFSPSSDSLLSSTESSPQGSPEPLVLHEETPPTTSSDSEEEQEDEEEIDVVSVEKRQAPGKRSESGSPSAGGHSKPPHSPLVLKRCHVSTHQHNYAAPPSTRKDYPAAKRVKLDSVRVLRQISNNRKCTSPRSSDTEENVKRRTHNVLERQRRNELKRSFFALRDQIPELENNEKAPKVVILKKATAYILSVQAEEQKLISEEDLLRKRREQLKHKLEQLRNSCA

Row | SMILES | % Degradation of MycN [1] | % Degradation of MycC [2] | Dmax at 2 µM [1] [%] | Dmax at 2 µM [2] [%]
1 | CN(c1nccc(Nc2cc(C3CCCC3)[nH]n2)n1)C1CCC(NC(=O)NC2Cc3ccc(C#N)cc3C2)CC1 [Compound 16 (Fraction 1), 1-(5-cyano-2,3-dihydro-1H-inden-2-yl)-3-((1R,4R)-4-((4-((5-cyclopentyl-1H-pyrazol-3-yl)amino)pyrimidin-2-yl)(methyl)amino)cyclohexyl)urea] | *** (***: degradation 50-79%) | **** (****: degradation 80-100%) |  | 
2 | CC(=O)N1CCC(NC(=O)N[C@H]2CC[C@H](Nc3nccc(Nc4cc(C5CCCC5)[nH]n4)n3)CC2)CC1 [Compound 2, 1-(1-acetylpiperidin-4-yl)-3-((1R,4R)-4-((4-((5-cyclopentyl-1H-pyrazol-3-yl)amino)pyrimidin-2-yl)amino)cyclohexyl)urea] |  |  | 20 to 49 | < 20
3 | CS(=O)(=O)N1CC(NC(=O)N[C@H]2CC[C@H](Nc3nccc(Nc4cc(C5CCCC5)[nH]n4)n3)CC2)C1 [Compound 56] |  |  | < 20 | 20 to 49
4 | CN(C(=O)N[C@H]1CC[C@H](N(C)c2nccc(Nc3cc(C4CCCC4)[nH]n3)n2)CC1)C1Cc2ccc(C#N)cc2C1 (stereo partly drawn) [Compound 153, 1-(5-cyano-2,3-dihydro-1H-inden-2-yl)-3-((1R,4R)-4-((4-((5-cyclopentyl-1H-pyrazol-3-yl)amino)pyrimidin-2-yl)(methyl)amino)cyclohexyl)-1-methylurea] |  |  | 20 to 49 | 50 to 79
5 | O=C(NC1CCCC(N2CCCC2=O)C1)N[C@H]1CC[C@H](Nc2nccc(Nc3cc(C4CCCC4)[nH]n3)n2)CC1 (mixture of isomers) [Compound 27, 1-((1R,4R)-4-((4-((5-cyclopentyl-1H-pyrazol-3-yl)amino)pyrimidin-2-yl)amino)cyclohexyl)-3-(3-(2-oxopyrrolidin-1-yl)cyclohexyl)urea] |  |  | < 20 | < 20
6 | CN(c1nccc(Nc2cc(C3CC(F)(F)C3)[nH]n2)n1)[C@H]1CC[C@H](NC(=O)NC2Cc3ccc(C#N)cc3C2)CC1 (stereo partly drawn) [Compound 145, 1-(5-cyano-2,3-dihydro-1H-inden-2-yl)-3-((1R,4R)-4-((4-((5-(3,3-difluorocyclobutyl)-1H-pyrazol-3-yl)amino)pyrimidin-2-yl)(methyl)amino)cyclohexyl)urea] |  |  | 80 to 100 | 50 to 79
7 | CS(=O)(=O)[C@H]1C[C@H](NC(=O)N[C@H]2CC[C@H](Nc3nccc(Nc4cc(C5CCCC5)[nH]n4)n3)CC2)C1 [Compound 57] |  |  | < 20 | 50 to 79
8 | N#Cc1ccc2c(c1)CC(NC(=O)N[C@H]1CC[C@H](Nc3nccc(Nc4cc(C5CCOC5)[nH]n4)n3)CC1)C2 (stereo partly drawn) [Compound 5, 1-(5-cyano-2,3-dihydro-1H-indene-2-yl)-3-((1R,4R)-4-((4-((5-(tetrahydrofuran-3-yl)-1H-pyrazol-3-yl)amino)pyrimidine-2-yl)amino)cyclohexyl)urea] |  |  | 20 to 49 | < 20
9 | N#Cc1ccc2c(c1)CC(NC(=O)N[C@H]1CC[C@H](Nc3nccc(Nc4cc(C5CCCC5)[nH]n4)n3)CC1)C2 (stereo partly drawn) [Compound 11 (Fraction 1), 1-(5-cyano-2,3-dihydro-1H-inden-2-yl)-3-((1R,4R)-4-((4-((5-cyclopentyl-1H-pyrazol-3-yl)amino)pyrimidin-2-yl)amino)cyclohexyl)urea] | ** (**: degradation 20-49%) | **** (****: degradation 80-100%) |  | 
10 | O=C(NC1COC1)N[C@H]1CC[C@H](Nc2nccc(Nc3cc(C4CCCC4)[nH]n3)n2)CC1 [Compound 46] |  |  | 20 to 49 | < 20
11 | CN1CC(NCc2ccc3c(c2)CC(NC(=O)N[C@H]2CC[C@H](Nc4nccc(Nc5cc(C6CCCC6)[nH]n5)n4)CC2)C3)C1 (stereo partly drawn) [Compound 107] |  |  | < 20 | 50 to 79
12 | O=C(Nc1cccc(C(F)(F)F)c1)N[C@H]1CC[C@H](Nc2nccc(Nc3cc(C4CCCC4)[nH]n3)n2)CC1 [Compound 39, 1-((1R,4R)-4-((4-((5-cyclopentyl-1H-pyrazol-3-yl)amino)pyrimidin-2-yl)amino)cyclohexyl)-3-(3-(trifluoromethyl)phenyl)urea] |  |  | 50 to 79 | 20 to 49
13 | O=C(N[C@H]1CC[C@H](Nc2nccc(Nc3cc(C4CCCC4)[nH]n3)n2)CC1)N[C@H]1C[C@H](c2ccccc2)C1 [Compound 52, 1-((1R,4R)-4-((4-((5-cyclopentyl-1H-pyrazol-3-yl)amino)pyrimidin-2-yl)amino)cyclohexyl)-3-(3-phenylcyclobutyl)urea] |  |  | 80 to 100 | 80 to 100
14 | O=C(NC1CC(c2ccccc2)C1)N[C@H]1CC[C@H](Nc2nccc(Nc3cc(C4CCOC4)[nH]n3)n2)CC1 (stereo partly drawn) [Compound 102, 1-((1R,3R)-3-phenylcyclobutyl)-3-((1,4R)-4-((4-((5-(tetrahydrofuran-3-yl)1H-pyrazol-3-yl)amino)pyrimidine-2-yl)amino)cyclohexyl)urea] |  |  | < 20 | < 20
15 | O=C(NC1CCC(Nc2nccc(Nc3cc(C4CCCC4)[nH]n3)n2)CC1)NC1CCN(C2CC2)CC1 (stereo not drawn) [Compound 63] |  |  | 50 to 79 | 20 to 49
16 | O=C(NC1CCN(CCO)CC1)N[C@H]1CC[C@H](Nc2nccc(Nc3cc(C4CCCC4)[nH]n3)n2)CC1 [Compound 70, 1-((1R,4R)-4-((4-((5-cyclopentyl-1H-pyrazol-3-yl)amino)pyrimidin-2-yl)amino)cyclohexyl)-3-(1-(2-hydroxyethyl)piperidin-4-yl)urea] |  |  | < 20 | 20 to 49
17 | O=C(N[C@@H]1CCC[C@@H](C(F)(F)F)C1)N[C@H]1CC[C@H](Nc2nccc(Nc3cc(C4CCCC4)[nH]n3)n2)CC1 [Compound 119] |  |  | < 20 | < 20
18 | Cc1cc(Nc2ccnc(N[C@H]3CC[C@H](NC(=O)NC4CCN(Cc5ccccn5)CC4)CC3)n2)n[nH]1 [Compound 73, 1-((1R,4R)-4-((4-((5-methyl-1H-pyrazol-3-yl)amino)pyrimidin-2-yl)amino)cyclohexyl)-3-(1-(pyridin-2-ylmethyl)piperidin-4-yl)urea] |  |  | < 20 | < 20
19 | CN(c1nccc(Nc2cc(C3CCC(F)(F)C3)[nH]n2)n1)[C@H]1CC[C@H](NC(=O)NC2Cc3ccc(C#N)cc3C2)CC1 (stereo partly drawn) [Compound 149, 1-(5-cyano-2,3-dihydro-1H-inden-2-yl)-3-((1R,4R)-4-((4-((5-(3,3-difluorocyclopentyl)-1H-pyrazol-3-yl)amino)pyrimidin-2-yl)(methyl)amino)cyclohexyl)urea] |  |  | 50 to 79 | < 20
20 | O=C(NC1CCC2(CC1)COC2)N[C@H]1CC[C@H](Nc2nccc(Nc3cc(C4CCCC4)[nH]n3)n2)CC1 [Compound 49, 1-((1R,4R)-4-((4-((5-cyclopentyl-1H-pyrazol-3-yl)amino)pyrimidin-2-yl)amino)cyclohexyl)-3-(2-oxaspiro[3.5]nonan-7-yl)urea] |  |  | < 20 | < 20
21 | CC(NC(=O)N[C@H]1CC[C@H](Nc2nccc(Nc3cc(C4CCCC4)[nH]n3)n2)CC1)c1ccccn1 (stereo partly drawn) [Compound 4] |  |  | 20 to 49 | 80 to 100
